Data on four compounds can be found in patent US7309497B2, “Injectable pharmaceutical composition for systematic administration of pharmacologically active ingredients” (Schwarz Pharma AG, priority 2000, dated 2007).

For data set [1] the following is noted: in vivo; cited from earlier work.
The conditions of data set [2]: subcutaneous administration; tests with animals; cited from earlier work.
For data set [3] the following is noted: distinct first-pass effect; cited from earlier work.
For data set [4] the following is noted: intravenously injected aqueous solutions; tests with animals; cited from earlier work.
Data set [5] in a line: Bioavailability and release of N-0923 from the depot composition per the invention. Format: in vivo. From the text: The composition according to the invention is particularly preferred for the administration of N-0923 hydrochloride, and especially so in a formulation with crystalline N-0923 hydrochloride. The latter can be produced for instance as described in U.S. Pat. No. 4,564,628.

For data set [6] the following is noted: in vivo; cited from earlier work. This is another data set of the same source.
The conditions of data set [7]: cited from earlier work.

Where two headings read alike, the source gives them in different places.

`O=c1[nH]cc(F)c(=O)[nH]1` [5-fluorouracil]: the half-time value in data set [1] is 10 to 20 min.

Usually bioavailability stands for dose-corrected exposure relative to a reference, in per cent. Regarding `CCCN(CCc1cccs1)[C@H]1CCc2c(O)cccc2C1` [N-0923, S(−)-2-(N-propyl-N-2-thienylerhyl-amino)-5-hyroxytetralin], in data set [2], the half-time value is 60 to 70 min. Further, in data set [3], the “bioavailability after oral administration” value is listed as “about 0.5%”. In addition, in data set [4], the half-time value was 52 min. Further, in data set [5] (depot composition), the “relationship of plasma agent levels to the dose introduced in the body” value is on record as “linear relationship” and the “time over which the active agent is released from the depots in the body in a therapeutically effective amount” value was “over 48 hours”. The bioavailability in data set [5] (plasma, depot composition with N-0923, read-out: bioavailability of the pharmaceutical composition per the invention) is around 70%.

Take proinsulin C-peptide: in data set [6], the half-time value result is “about 30 minutes”.

In the case of `N[C@@H](Cc1ccc(O)c(O)c1)C(=O)O` [levodopa], the “half-time in the plasma” value in data set [7] is 1 to 3 h.
